Activity calls are given as the source filed them. No cut-off for these calls is given here.
Legend:
[1] = target: Integrin alpha-M (Homo sapiens) (UniProt P11215); details: THP-1, 10 uM
[2] = target: Integrin alpha-4/beta-1 (Homo sapiens) (UniProt P05556+P13612); details: Jurkat, 10 uM
[3] = target: T1, Integrin alpha-2/beta-3 (Homo sapiens) (UniProt P05106+P17301); details: 30 uM
[4] = target: T1, Integrin alpha-2/beta-3 (Homo sapiens); details: 30 uM; remark: listed apart in the source
Mus musculus [5] = organism: Mus musculus; details: in vivo, po, 5 mg/kg
Rattus norvegicus = organism: Rattus norvegicus; details: in vivo, po, 5 mg/kg
Canis familiaris = organism: Canis familiaris; details: dog, in vivo, po, 5 mg/kg
Mus musculus [6] = organism: Mus musculus; details: BALB/c, 1 mg/kg
Mus musculus [7] = organism: Mus musculus; details: BALB/c, 3 to 10 mg/kg
in vivo [8] = details: mouse, po, 5 mg/kg
in vivo [9] = details: mouse, plasma, po, 5 mg/kg
in vivo [10] = details: mouse, iv, 1 mg/kg
in vivo [11] = details: mouse, iv, 1 mg/kg; remark: listed apart in the source
in vivo [12] = details: mouse, iv, 1 mg/kg; remark: listed apart in the source
in vivo [13] = details: mouse, iv, 1 mg/kg; remark: listed apart in the source
in vivo [14] = details: mouse, po, 5 mg/kg; remark: listed apart in the source
in vivo [15] = details: rat, po, 5 mg/kg
in vivo [16] = details: rat, plasma, po, 5 mg/kg
in vivo [17] = details: rat, iv, 1 mg/kg
in vivo [18] = details: rat, iv, 1 mg/kg; remark: listed apart in the source
in vivo [19] = details: rat, iv, 1 mg/kg; remark: listed apart in the source
in vivo [20] = details: rat, iv, 1 mg/kg; remark: listed apart in the source
in vivo [21] = details: rat, po, 5 mg/kg; remark: listed apart in the source
in vivo [22] = details: dog, po, 5 mg/kg
in vivo [23] = details: dog, plasma, po, 5 mg/kg
in vivo [24] = details: dog, iv, 1 mg/kg
in vivo [25] = details: dog, iv, 1 mg/kg; remark: listed apart in the source
in vivo [26] = details: dog, iv, 1 mg/kg; remark: listed apart in the source
in vivo [27] = details: dog, iv, 1 mg/kg; remark: listed apart in the source
in vivo [28] = details: dog, po, 5 mg/kg; remark: listed apart in the source
in vitro [29] = details: human, Caco-2
in vitro [30] = details: human, serum
hERG (KCNH2) = hERG (KCNH2) (Homo sapiens, UniProt Q12809); test: in vitro
Chain of hERG (KCNH2) (Q12809 whole entry): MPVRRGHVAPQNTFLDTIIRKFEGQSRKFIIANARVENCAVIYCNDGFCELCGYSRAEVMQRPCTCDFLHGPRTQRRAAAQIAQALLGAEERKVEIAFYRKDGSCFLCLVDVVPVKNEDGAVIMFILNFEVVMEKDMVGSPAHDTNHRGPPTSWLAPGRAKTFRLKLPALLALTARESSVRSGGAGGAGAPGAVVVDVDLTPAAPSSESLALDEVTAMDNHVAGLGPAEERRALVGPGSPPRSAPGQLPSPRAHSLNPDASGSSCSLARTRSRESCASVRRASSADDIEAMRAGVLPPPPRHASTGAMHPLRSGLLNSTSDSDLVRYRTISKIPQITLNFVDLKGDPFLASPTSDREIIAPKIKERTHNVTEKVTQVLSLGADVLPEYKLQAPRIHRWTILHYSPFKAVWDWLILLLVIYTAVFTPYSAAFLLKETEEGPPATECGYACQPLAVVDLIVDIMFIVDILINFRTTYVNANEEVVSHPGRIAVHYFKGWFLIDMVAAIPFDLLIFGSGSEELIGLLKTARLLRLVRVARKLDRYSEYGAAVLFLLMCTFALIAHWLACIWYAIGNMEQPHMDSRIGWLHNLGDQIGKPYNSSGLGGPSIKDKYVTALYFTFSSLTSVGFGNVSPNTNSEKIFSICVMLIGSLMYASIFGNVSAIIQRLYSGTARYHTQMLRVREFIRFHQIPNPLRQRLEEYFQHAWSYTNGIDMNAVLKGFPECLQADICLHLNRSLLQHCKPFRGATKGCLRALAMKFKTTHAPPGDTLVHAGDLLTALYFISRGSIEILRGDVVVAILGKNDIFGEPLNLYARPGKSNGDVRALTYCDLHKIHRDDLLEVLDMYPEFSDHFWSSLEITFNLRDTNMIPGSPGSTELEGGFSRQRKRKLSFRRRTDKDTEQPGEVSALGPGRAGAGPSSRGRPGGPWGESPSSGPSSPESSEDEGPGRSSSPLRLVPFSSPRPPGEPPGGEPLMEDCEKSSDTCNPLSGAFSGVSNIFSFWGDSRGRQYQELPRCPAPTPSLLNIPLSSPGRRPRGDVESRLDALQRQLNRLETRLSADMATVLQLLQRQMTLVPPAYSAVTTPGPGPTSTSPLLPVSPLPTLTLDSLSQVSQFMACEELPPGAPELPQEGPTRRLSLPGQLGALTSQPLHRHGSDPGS

in vitro [31] = details: Purkinje fibers

Molecule `CN1C(=O)N(c2cc(Cl)cc(Cl)c2)C(=O)[C@]12CN(c1ccc(C(=O)O)cn1)C[C@H]2c1ccc(C#N)cc1` has an inhibition [1] of 18%, an inhibition [2] of 0% and an inhibition [3] of 0%. It also gave an inhibition [4] of 0%, a Tmax (Mus musculus [5]) of 1 h and a Tmax (Rattus norvegicus) of 1.7 h. For the same molecule, the Tmax (Canis familiaris) was 2.9 h, the inhibition (Mus musculus [6]) was “Active” and the inhibition (Mus musculus [7]) was “Dose-dependent effect”. For the same molecule, the Cmax (in vivo [8]) was 320 nM, the AUC (in vivo [9]) was 1.5 µM·h and the half-life (in vivo [10]) was 1.6 h. The MRT (in vivo [11]) was 1.7 h, the clearance (in vivo [12]) was 50 mL/min/kg and the Vd (in vivo [13]) was 5.1 L/kg. It also gave a bioavailability (in vivo [14]) of 50%, a Cmax (in vivo [15]) of 2300 nM and an AUC (in vivo [16]) of 13 µM·h. It also gave a half-life (in vivo [17]) of 3.3 h, an MRT (in vivo [18]) of 3.5 h and a clearance (in vivo [19]) of 11 mL/min/kg. For the same molecule, the Vd (in vivo [20]) was 2.3 L/kg, the bioavailability (in vivo [21]) was 82% and the Cmax (in vivo [22]) was 22000 nM. The AUC (in vivo [23]) was 102 µM·h, the half-life (in vivo [24]) was 4.7 h and the MRT (in vivo [25]) was 6.9 h. It also gave a clearance (in vivo [26]) of 0.5 mL/min/kg, a Vd (in vivo [27]) of 0.2 L/kg and a bioavailability (in vivo [28]) of 48%. The Papp A→B (in vitro [29]) was 14.8 ×10⁻⁶ cm/s, the fraction unbound (in vitro [30]) was 0.05 and the inhibition at 30 µM (hERG (KCNH2)) was 20%. The inhibition at 30 µM (in vitro [31]) was less than 5%.
